Measured values reported in ChEMBL document CHEMBL1154541, “Synthesis of H-bonding probes of alpha7 nAChR agonist selectivity” (Bioorg Med Chem Lett, 2009).
The source made the active and inactive calls. The calls are words filed in the database; no cut-off is given here.

Columns and labels:
Type in all cases: functional, cell-based
Settings in all cases: Oocyte
[1] = target: Neuronal acetylcholine receptor subunit alpha-7 (Homo sapiens) (UniProt P36544); assay: Agonist activity to alpha7 nAChR expressed in Xenopus oocytes assessed as response current at 100 uM by two-electrode voltage clamp relative to acetylcholine
Neuronal acetylcholine receptor subunit alpha-7 (Homo sapiens), sequence (P36544 whole entry): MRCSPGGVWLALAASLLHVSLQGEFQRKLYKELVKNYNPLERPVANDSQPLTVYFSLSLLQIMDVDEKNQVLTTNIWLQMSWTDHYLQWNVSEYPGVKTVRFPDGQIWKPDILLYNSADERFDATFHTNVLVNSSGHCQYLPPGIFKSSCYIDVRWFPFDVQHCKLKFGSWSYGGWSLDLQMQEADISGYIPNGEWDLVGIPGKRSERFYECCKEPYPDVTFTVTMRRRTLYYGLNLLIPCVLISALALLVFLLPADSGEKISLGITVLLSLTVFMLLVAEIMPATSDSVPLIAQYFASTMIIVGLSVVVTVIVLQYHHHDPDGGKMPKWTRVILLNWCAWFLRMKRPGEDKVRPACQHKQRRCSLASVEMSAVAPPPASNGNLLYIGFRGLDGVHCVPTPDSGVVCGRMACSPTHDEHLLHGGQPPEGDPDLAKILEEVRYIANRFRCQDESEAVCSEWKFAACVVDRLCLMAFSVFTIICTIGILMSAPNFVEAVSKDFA

[2] = target: Acetylcholine receptor subunit alpha (Homo sapiens) (UniProt P02708); assay: Agonist activity to alpha-1-beta-1-epsilon-delta nAChR expressed in Xenopus oocytes assessed as response current at 100 uM by two-electrode voltage clamp relative to acetylcholine
Acetylcholine receptor subunit alpha (Homo sapiens), sequence (P02708 whole entry): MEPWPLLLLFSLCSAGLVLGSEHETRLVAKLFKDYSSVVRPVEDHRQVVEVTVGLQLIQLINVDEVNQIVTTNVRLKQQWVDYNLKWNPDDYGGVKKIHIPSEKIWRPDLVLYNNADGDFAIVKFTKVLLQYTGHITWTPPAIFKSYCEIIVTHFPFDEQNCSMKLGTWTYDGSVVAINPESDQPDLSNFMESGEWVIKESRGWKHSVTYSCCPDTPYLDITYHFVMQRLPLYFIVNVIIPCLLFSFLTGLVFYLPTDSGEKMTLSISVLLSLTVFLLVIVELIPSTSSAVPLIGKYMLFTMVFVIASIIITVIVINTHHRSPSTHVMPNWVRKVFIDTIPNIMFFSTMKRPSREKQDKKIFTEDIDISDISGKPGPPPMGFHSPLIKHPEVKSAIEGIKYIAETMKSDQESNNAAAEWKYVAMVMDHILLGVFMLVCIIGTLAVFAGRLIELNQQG

[3] = target: Neuronal acetylcholine receptor subunit alpha-7 (Homo sapiens) (UniProt P36544); assay: Agonist activity to alpha7 nAChR expressed in Xenopus oocytes assessed as response current by two-electrode voltage clamp relative to acetylcholine
[4] = target: Neuronal acetylcholine receptor; alpha4/beta2 (Homo sapiens) (UniProt P17787+P43681); assay: Agonist activity to alpha4beta2 nAChR expressed in Xenopus oocytes assessed as response current at 100 uM by two-electrode voltage clamp relative to acetylcholine
[5] = target: Neuronal acetylcholine receptor subunit alpha-7 (Homo sapiens) (UniProt P36544); assay: Agonist activity to alpha7 nAChR expressed in Xenopus oocytes assessed as response current at 1mM by two-electrode voltage clamp relative to acetylcholine
[6] = target: Neuronal acetylcholine receptor; alpha3/beta4 (Homo sapiens) (UniProt P30926+P32297); assay: Agonist activity to alpha3beta4 nAChR expressed in Xenopus oocytes assessed as response current at 100 uM by two-electrode voltage clamp relative to acetylcholine

| SMILES | Activity [1] | Activity [2] | ED50 [3] | Activity [4] | Activity [5] | Activity [6] |
| --- | --- | --- | --- | --- | --- | --- |
| C(=C1/CCCN=C1c1cccnc1)/c1cccnc1 | 35% | inactive | 100 µM | inactive |  |  |
| C(=C1/CCCN=C1c1cccnc1)/c1ccncc1 |  | inactive |  | inactive | < 20% |  |
| C(=C1/CCCN=C1c1cccnc1)/c1ccc[nH]1 | 40% | inactive |  | inactive |  |  |
| C(=C1/CCCN=C1c1cccnc1)/c1ccccn1 |  | inactive |  | inactive | < 20% |  |
| C(=C1/CCCN=C1c1cccnc1)/c1cc[nH]c1 | 40% |  |  |  |  | 5% |
